Patent US12454520B2, “Protein degraders and uses thereof” (Kymera Therapeutics, Inc., priority 2018, dated 2025)

biological target: T1, SMARCA2 (Homo sapiens, UniProt P51531); assay: MSD SMARCA2 degradation in NCI-H1299 cell line; format: cell-based; conditions: NCI-H1299 cells, percentage of SMARCA2 degradation after 24 hours
T1 construct: endogenous in cells; host or cells: NCI-H1299
Experimental: Example 14. MSD SMARCA2 Degration in NCI-H1299 Cell Line
Cell Culture: Cells were cultured in exponential growth phase.
Compound Preparation and Treatment: NCI-H1299 cells were seeded into the 96-well plate at 4.0*10^4 cells per 100ul per well. Incubate the plate in the incubator overnight. The next day, compounds were diluted to designed stock concentration by TECAN, then perform a 3 fold, 9-point dilution via transferring 15 uL compound into 30 μL DMSO using Apricot. 200 nL diluted compound from compound source plate were transferred into the 96-intermediate plate as designated by using Echo550, followed with 100 ul culture medium to make the 2× compound solution. Cell plate were changed with 80 ul of fresh culture medium and 80 ul of 2× compound solution was added into the well to achieve the final designed concentration. Cell plate was then shaken at 720 rpm for 5 min and incubated for 24 hours in the incubator.
Sample Preparation: Media was aspirated from the cultures and the plate was washed with PBS twice. 60 ul of pre-chilled PIPA lysis buffer (Boston BioProducts BP-115D) with protease inhibitor were directly added into the well to lyze the cells for 20 minutes at 4° C. Cell lysates were collected.
MSD Procedure: The MSD plate was coated with 40 ul cell lysate and incubated at 4° C. overnight. The next day, the MSD coated bare plate was washed 3 times with 150 ul 1×TBST per well, blocked with 150 ul of blocking buffer per well, and shaken for 1 hour at RT, 600 rpm. Blocking buffer was 3% Blocker A in TBST. MSD plate was then washed 3 times with 150 ul 1×TBST per well and Primary Detection antibody (Rabbit anti-SMARCA2/BRM antibody, 100 μg/ml, ab223735) was added to a final [conc.]: 0.3 ug/ml, 25ul/well and shaken for 1 hour at RT, 600 rpm. Antibody was prepared in Antibody Detection buffer (1% Blocker A in 1×TBST). The MSD plate was then washed 3 times with 150 ul 1×TBST per well. Secondary Detection antibody (SULFO-TAG anti-species antibody) was then added to a final [conc.]: 1 μg/ml, 25 ul/well, and shaken for 1 hour at RT, 600 rpm. Antibodies were prepared in Antibody Detection buffer (1% Blocker A in 1×TBST). MSD plate was washed 3 times with 150 ul 1×TBST per well and 2×MSD reading buffer was added, 150 ul per well, and diluted from 4× with water. MSD instrument was then read.
Data Analysis: The percentage of relative level of SMARCA2 level was calculated following equation below.
LC: A2780, SMARCA2 negative cells. HC: NCI-H1299 cells treated with DMSO.
The letter codes for the percentage of SMARCA2 degradation after 24 hours (Dmax %) include: A (>90% degradation), B (>70-90% degradation), C (50-70% degradation), and D (<50% degradation).

T1 sequence (P51531 whole entry): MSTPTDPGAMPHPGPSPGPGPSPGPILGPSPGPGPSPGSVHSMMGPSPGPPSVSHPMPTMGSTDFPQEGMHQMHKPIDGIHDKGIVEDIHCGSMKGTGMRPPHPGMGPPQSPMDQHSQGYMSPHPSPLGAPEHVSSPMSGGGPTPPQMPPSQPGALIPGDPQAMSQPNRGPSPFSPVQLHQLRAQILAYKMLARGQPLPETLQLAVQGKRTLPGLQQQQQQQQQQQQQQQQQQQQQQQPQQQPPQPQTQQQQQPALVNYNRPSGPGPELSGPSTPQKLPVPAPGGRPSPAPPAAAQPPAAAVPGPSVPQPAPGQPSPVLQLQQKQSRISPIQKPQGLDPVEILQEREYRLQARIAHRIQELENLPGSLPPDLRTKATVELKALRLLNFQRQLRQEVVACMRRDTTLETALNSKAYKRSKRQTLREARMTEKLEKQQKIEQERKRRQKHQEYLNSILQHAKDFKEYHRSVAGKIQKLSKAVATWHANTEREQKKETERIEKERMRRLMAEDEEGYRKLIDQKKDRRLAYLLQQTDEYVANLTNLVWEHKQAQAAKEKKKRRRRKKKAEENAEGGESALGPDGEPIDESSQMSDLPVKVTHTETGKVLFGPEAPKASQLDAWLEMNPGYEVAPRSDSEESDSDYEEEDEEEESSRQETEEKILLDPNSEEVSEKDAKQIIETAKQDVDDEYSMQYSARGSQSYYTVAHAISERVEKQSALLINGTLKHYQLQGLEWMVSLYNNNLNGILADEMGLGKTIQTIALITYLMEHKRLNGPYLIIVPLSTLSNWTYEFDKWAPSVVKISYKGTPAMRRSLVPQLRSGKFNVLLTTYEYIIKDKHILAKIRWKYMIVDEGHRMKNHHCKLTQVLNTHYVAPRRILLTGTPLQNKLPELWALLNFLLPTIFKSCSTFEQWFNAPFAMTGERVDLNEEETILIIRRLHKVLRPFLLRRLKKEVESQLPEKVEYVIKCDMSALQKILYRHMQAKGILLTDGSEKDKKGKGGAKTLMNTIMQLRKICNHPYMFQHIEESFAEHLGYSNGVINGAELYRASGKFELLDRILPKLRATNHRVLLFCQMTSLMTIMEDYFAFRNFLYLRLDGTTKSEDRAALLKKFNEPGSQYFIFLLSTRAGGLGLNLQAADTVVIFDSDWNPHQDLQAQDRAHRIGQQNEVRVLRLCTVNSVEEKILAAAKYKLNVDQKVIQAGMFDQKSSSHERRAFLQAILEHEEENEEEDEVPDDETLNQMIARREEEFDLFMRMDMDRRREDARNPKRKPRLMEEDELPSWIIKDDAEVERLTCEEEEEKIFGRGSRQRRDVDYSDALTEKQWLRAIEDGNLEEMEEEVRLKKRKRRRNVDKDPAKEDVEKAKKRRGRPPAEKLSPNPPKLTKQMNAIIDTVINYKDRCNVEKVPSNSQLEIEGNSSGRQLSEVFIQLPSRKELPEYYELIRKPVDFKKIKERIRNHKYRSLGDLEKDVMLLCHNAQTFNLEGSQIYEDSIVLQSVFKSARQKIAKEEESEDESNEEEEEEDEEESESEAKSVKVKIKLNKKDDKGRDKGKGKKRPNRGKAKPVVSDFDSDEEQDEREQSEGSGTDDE

| Dmax [%] | Compound |
| --- | --- |
| > 90 | Nc1nnc(-c2ccccc2O)cc1-c1cnn(C2CCN(CCCCCc3ccnc4c3c3ccccc3n4C3CCC(=O)NC3=O)CC2)c1 (stereo not shown) [I-137] |
| > 90 | Nc1nnc(-c2ccccc2O)cc1-c1cnn(CC2CCN(CCCc3ccnc4c3c3ccccc3n4C3CCC(=O)NC3=O)CC2)c1 (stereo not shown) [I-103] |
| 50 to 70 | Nc1nnc(-c2ccccc2O)cc1-c1cnn(CC2CCN(Cc3cccc4c3c3cccnc3n4C3CCC(=O)NC3=O)CC2)c1 (stereo not shown) [I-96] |
| 70 to 90 | Nc1nnc(-c2ccccc2O)cc1-c1ccc(CN2CCN(CCCCCCc3ccnc4c3c3ccccc3n4C3CCC(=O)NC3=O)CC2)cc1 (stereo not shown) [I-82] |
| > 90 | Nc1nnc(-c2ccccc2O)cc1-c1cnn(C2CCN(C3CCC(c4ccc5c(c4)c4cccnc4n5C4CCC(=O)NC4=O)CC3)CC2)c1 (stereo not shown) [I-144] |
| > 90 | Nc1nnc(-c2ccccc2O)cc1-c1ccc(CN2CCN(CCCCCCCc3cccc4c3c3cccnc3n4C3CCC(=O)NC3=O)CC2)cc1 (stereo not shown) [I-80] |
| 70 to 90 | Nc1nnc(-c2ccccc2O)cc1-c1ccc(CN2CCN(CCCCCc3ccnc4c3c3ccccc3n4C3CCC(=O)NC3=O)CC2)cc1 (stereo not shown) [I-81] |
| 70 to 90 | Nc1nnc(-c2ccccc2O)cc1-c1ccc(CN2CCN(CCCCCCCc3ccnc4c3c3ccccc3n4C3CCC(=O)NC3=O)CC2)cc1 (stereo not shown) [I-83] |
| 50 to 70 | CN(CCCCCc1ccnc2c1c1ccccc1n2C1CCC(=O)NC1=O)Cc1ccc(N2CCN(c3cc(-c4ccccc4O)nnc3N)CC2)cc1 (stereo not shown) [I-102] |
| < 50 | CN(CCCCCc1cccc2c1c1cccnc1n2C1CCC(=O)NC1=O)Cc1ccc(N2CCN(c3cc(-c4ccccc4O)nnc3N)CC2)cc1 (stereo not shown) [I-95] |
| 70 to 90 | Nc1nnc(-c2ccccc2O)cc1-c1cnn([C@H]2CCCN(CCCc3ccc4c(c3)c3cccnc3n4C3CCC(=O)NC3=O)C2)c1 (stereo partly drawn) [I-141, 3-[6-[3-[(3S)-3-[4-[3-amino-6-(2-hydroxyphenyl)pyridazin-4-yl]pyrazol-1-yl]-1-piperidyl]propyl]pyrido[2,3-b]indol-9-yl]piperidine-2,6-dione] |
| > 90 | Nc1nnc(-c2ccccc2O)cc1-c1ccc(CN2CCN(CCCCCCCCc3ccc4c(c3)c3cccnc3n4C3CCC(=O)NC3=O)CC2)cc1 (stereo not shown) [I-76] |
| 70 to 90 | Nc1nnc(-c2ccccc2O)cc1-c1cnn(C2CCN(Cc3cn(Cc4ccc5c(c4)c4cccnc4n5C4CCC(=O)NC4=O)nn3)CC2)c1 (stereo not shown) [I-146, 3-(6-((4-((4-(4-(3-amino-6-(2-hydroxyphenyl)pyridazin-4-yl)-1H-pyrazol-1-yl)piperidin-1-yl)methyl)-1H-1,2,3-triazol-1-yl)methyl)-9H-pyrido[2,3-b]indol-9-yl)piperidine-2,6-dione] |
| > 90 | Nc1nnc(-c2ccccc2O)cc1-c1cnn(CC2CCN(CCCCCc3cccc4c3c3cccnc3n4C3CCC(=O)NC3=O)CC2)c1 (stereo not shown) [I-98] |
| 70 to 90 | Nc1nnc(-c2ccccc2O)cc1-c1ccc(CN2CCN(CCCCCCCc3ccc4c(c3)c3cccnc3n4C3CCC(=O)NC3=O)CC2)cc1 (stereo not shown) [I-75] |
| > 90 | Nc1nnc(-c2ccccc2O)cc1-c1ccc(CN2CCN(CCCCCCCCCc3ccc4c(c3)c3cccnc3n4C3CCC(=O)NC3=O)CC2)cc1 (stereo not shown) [I-77] |
| < 50 | Nc1nnc(-c2ccccc2O)cc1N1CCN(Cc2cccc3c2c2cccnc2n3C2CCC(=O)NC2=O)CC1 (stereo not shown) [I-90] |
| 70 to 90 | Nc1nnc(-c2ccccc2O)cc1-c1ccc(CNCCOCCOCCCc2cnc3c(c2)c2ccccc2n3C2CCC(=O)NC2=O)cc1 (stereo not shown) [I-88] |
| 50 to 70 | Nc1nnc(-c2ccccc2O)cc1-c1cnn(C2CCN(CCCCCc3ccc4c(c3)c3cccnc3n4C3CCC(=O)NC3=O)CC2)c1 (stereo not shown) [I-135] |
| < 50 | Nc1nnc(-c2ccccc2O)cc1-c1ccc(CN2CCN(Cc3ccc4c(c3)c3cccnc3n4C3CCC(=O)NC3=O)CC2)cc1 (stereo not shown) [I-105] |
| 50 to 70 | Nc1nnc(-c2ccccc2O)cc1-c1ccc(CN2CCN(CCCCOCCCc3ccc4c(c3)c3cccnc3n4C3CCC(=O)NC3=O)CC2)cc1 (stereo not shown) [I-84] |

| Dmax [%] | Compound |
| --- | --- |
| 50 to 70 | Nc1nnc(-c2ccccc2O)cc1-c1ccc(CN2CCN(CCCCCCc3cccc4c3c3cccnc3n4C3CCC(=O)NC3=O)CC2)cc1 (stereo not shown) [I-79] |
| > 90 | Nc1nnc(-c2ccccc2O)cc1-c1cnn(CC2CCN(CCCCCc3ccnc4c3c3ccccc3n4C3CCC(=O)NC3=O)CC2)c1 (stereo not shown) [I-104] |
| < 50 | CN(CCCc1ccnc2c1c1ccccc1n2C1CCC(=O)NC1=O)Cc1ccc(N2CCN(c3cc(-c4ccccc4O)nnc3N)CC2)cc1 (stereo not shown) [I-101] |
| < 50 | Nc1nnc(-c2ccccc2O)cc1-c1cnn(CC2CCN(CCCCOCCCc3cccc4c3c3cccnc3n4C3CCC(=O)NC3=O)CC2)c1 (stereo not shown) [I-89] |
| > 90 | Nc1nnc(-c2ccccc2O)cc1-c1cnn(CC2CCN(CCCc3cccc4c3c3cccnc3n4C3CCC(=O)NC3=O)CC2)c1 (stereo not shown) [I-97] |
| < 50 | Nc1nnc(-c2ccccc2O)cc1N1CCN(CCCCCc2ccnc3c2c2ccccc2n3C2CCC(=O)NC2=O)CC1 (stereo not shown) [I-100] |
| > 90 | Nc1nnc(-c2ccccc2O)cc1-c1cnn(C2CCCN(CCCc3ccnc4c3c3ccccc3n4C3CCC(=O)NC3=O)C2)c1 (stereo not shown) [I-143] |
| < 50 | Nc1nnc(-c2ccccc2O)cc1-c1cnn(C2CCCN(CCCc3ccc4c(c3)c3cccnc3n4C3CCC(=O)NC3=O)C2)c1 (stereo not shown) [I-142] |
| > 90 | CN(Cc1ccc(N2CCN(c3cc(-c4ccccc4O)nnc3N)CC2)cc1)CC1CCN(Cc2ccc3c(c2)c2cccnc2n3C2CCC(=O)NC2=O)CC1 (stereo not shown) [I-85] |
| < 50 | CN(Cc1ccc(N2CCN(c3cc(-c4ccccc4O)nnc3N)CC2)cc1)CC1CCN(Cc2cccc3c2c2cccnc2n3C2CCC(=O)NC2=O)CC1 (stereo not shown) [I-87] |
| < 50 | Nc1nnc(-c2ccccc2O)cc1N1CCN(CCCc2ccnc3c2c2ccccc2n3C2CCC(=O)NC2=O)CC1 (stereo not shown) [I-99] |
| 70 to 90 | Nc1nnc(-c2ccccc2O)cc1-c1cnn(CC2CCN(CCCCc3ccc4c(c3)c3cccnc3n4C3CCC(=O)NC3=O)CC2)c1 (stereo not shown) [I-134] |
| < 50 | Nc1nnc(-c2ccccc2O)cc1-c1ccc(CN2CCN(CCCc3ccc4c(c3)c3cccnc3n4C3CCC(=O)NC3=O)CC2)cc1 (stereo not shown) [I-86] |
| < 50 | CN(Cc1ccc(N2CCN(c3cc(-c4ccccc4O)nnc3N)CC2)cc1)Cc1cccc2c1c1cccnc1n2C1CCC(=O)NC1=O (stereo not shown) [I-93] |
| > 90 | Nc1nnc(-c2ccccc2O)cc1-c1cnn(C2CCN(CCCCc3ccc4c(c3)c3cccnc3n4C3CCC(=O)NC3=O)CC2)c1 (stereo not shown) [I-133] |
| 50 to 70 | Nc1nnc(-c2ccccc2O)cc1-c1ccc(CN2CCN(CCCCCc3cccc4c3c3cccnc3n4C3CCC(=O)NC3=O)CC2)cc1 (stereo not shown) [I-78] |
| < 50 | Nc1nnc(-c2ccccc2O)cc1-c1cnn(CC2COC(CCCCc3ccc4c(c3)c3cccnc3n4C3CCC(=O)NC3=O)OC2)c1 (stereo not shown) [I-140, 3-(6-(4-(5-((4-(3-amino-6-(2-hydroxyphenyl)pyridazin-4-yl)-1H-pyrazol-1-yl)methyl)-1,3-dioxan-2-yl)butyl)-9H-pyrido[2,3-b]indol-9-yl)piperidine-2,6-dione] |
| < 50 | Nc1nnc(-c2ccccc2O)cc1N1CCN(CCCCCc2cccc3c2c2cccnc2n3C2CCC(=O)NC2=O)CC1 (stereo not shown) [I-92] |
| < 50 | Nc1nnc(-c2ccccc2O)cc1N1CCN(CCCc2cccc3c2c2cccnc2n3C2CCC(=O)NC2=O)CC1 (stereo not shown) [I-91] |
| 50 to 70 | CN(CCCc1cccc2c1c1cccnc1n2C1CCC(=O)NC1=O)Cc1ccc(N2CCN(c3cc(-c4ccccc4O)nnc3N)CC2)cc1 (stereo not shown) [I-94] |

| Compound | Dmax [%] |
| --- | --- |
| Nc1nnc(-c2ccccc2O)cc1N1CC2CCC(C1)N2c1ncc(C2CCN(CCCc3ccnc4c3c3ccccc3n4C3CCC(=O)NC3=O)CC2)cn1 (stereo not shown) [I-145, 3-(4-(3-(4-(2-(3-(3-amino-6-(2-hydroxyphenyl)pyridazin-4-yl)-3,8-diazabicyclo[3.2.1]octan-8-yl)pyrimidin-5-yl)piperidin-1-yl)propyl)-9H-pyrido[2,3-b]indol-9-yl)piperidine-2,6-dione] | > 90 |
| Nc1nnc(-c2ccccc2O)cc1N1CC2CCC(C1)N2c1ncc(C2CCN(CCCc3ccc4c(c3)c3cccnc3n4C3CCC(=O)NC3=O)CC2)cn1 (stereo not shown) [I-138, 3-[6-[3-[4-[2-[3-[3-amino-6-(2-hydroxyphenyl)pyridazin-4-yl]-3,8-diazabicyclo[3.2.1]octan-8-yl]pyrimidin-5-yl]-1-piperidyl]propyl]pyrido[2,3-b]indol-9-yl]piperidine-2,6-dione] | > 90 |
